Assay results: patent US20250382302A1, “Anticancer polyheterocyclic compounds and associated methods” (University of Denver, priority 2024, published 2025)

Key:
[1] = tested on: NCI-H23; conditions: Non-Small Cell Lung Cancer
[2] = tested on: KM12; conditions: Colon Cancer
[3] = tested on: SNB-75; conditions: CNS Cancer
[4] = tested on: UACC-62; conditions: Melanoma
[5] = tested on: OVCAR-8; conditions: Ovarian Cancer
[6] = tested on: ACHN; conditions: Renal Cancer
[7] = tested on: UO-31; conditions: Renal Cancer
[8] = tested on: NCI-H23; assay: cells; conditions: Homo sapiens
[9] = tested on: KM12; assay: cells; conditions: Homo sapiens
[10] = tested on: SNB-75; assay: cells; conditions: Homo sapiens
[11] = tested on: UACC-62; assay: cells; conditions: Homo sapiens
[12] = tested on: OVCAR-8; assay: cells; conditions: Homo sapiens
[13] = tested on: ACHN; assay: cells; conditions: Homo sapiens
[14] = tested on: UO-31; assay: cells; conditions: Homo sapiens
[15] = tested on: MCF7; assay: NCI five-dose testing, MCF7
[16] = tested on: T-47D; assay: NCI five-dose testing, T-47D
[17] = tested on: MOLT-4; assay: NCI five-dose testing, MOLT-4
[18] = tested on: OVCAR-3; assay: NCI five-dose testing, OVCAR-3
[19] = tested on: OVCAR-4; assay: NCI five-dose testing, OVCAR-4
[20] = tested on: CCRF-CEM; assay: NCI five-dose testing, CCRF-CEM
[21] = tested on: NCI-H522; assay: NCI five-dose testing, NCI-H522
[22] = tested on: HL-60(TB); assay: NCI five-dose testing, HL-60(TB)
[23] = tested on: RPMI-8226; assay: NCI five-dose testing, RPMI-8226
[24] = tested on: MDA-MB-468; assay: NCI five-dose testing, MDA-MB-468

SMILES: C=CCN(C(=O)C(=O)NC1=CC(=O)c2ccccc2C1=O)c1c(OC)cccc1OC
- TGI [1]: 2.79 × 10^−6
- TGI [2]: 2.28 × 10^−6
- TGI [3]: 2.93 × 10^−6
- TGI [4]: 2.81 × 10^−6
- TGI [5]: 2.70 × 10^−6
- TGI [6]: 2.66 × 10^−6
- TGI [7]: 2.76 × 10^−6
- GI50 ([8]; NCI-H23): 1440 nM
- CC50 ([8]; NCI-H23, read-out: LC50): 5390 nM
- GI50 ([9]; KM12): 626 nM
- CC50 ([9]; KM12, read-out: LC50): 6390 nM
- GI50 ([10]; SNB-75): 1430 nM
- CC50 ([10]; SNB-75, read-out: LC50): 5990 nM
- GI50 ([11]; UACC-62): 1480 nM
- CC50 ([11]; UACC-62, read-out: LC50): 5350 nM
- GI50 ([12]; OVCAR-8): 1360 nM
- CC50 ([12]; OVCAR-8, read-out: LC50): 5360 nM
- GI50 [13]: 1350 nM
- CC50 ([13]; read-out: LC50): 5210 nM
- GI50 ([14]; UO-31): 1440 nM
- CC50 ([14]; UO-31, read-out: LC50): 5310 nM
- TGI ([15]; Breast Cancer, MCF7): 2.78 × 10^−6
- GI50 ([15]; Homo sapiens, MCF7): 1450 nM
- CC50 ([15]; Homo sapiens, MCF7, read-out: LC50): 5320 nM
- TGI ([16]; Breast Cancer, T-47D): 2.81 × 10^−6
- GI50 ([16]; Homo sapiens, T47D): 1480 nM
- CC50 ([16]; Homo sapiens, T47D, read-out: LC50): 5330 nM
- GI50 ([17]; Homo sapiens, MOLT-4): 441 nM
- CC50 ([17]; Homo sapiens, MOLT-4, read-out: LC50): 4040 nM
- TGI ([17]; Leukemia, MOLT-4): 1.62 × 10^−6
- GI50 ([18]; Homo sapiens, OVCAR-3): 1030 nM
- CC50 ([18]; Homo sapiens, OVCAR-3, read-out: LC50): 4730 nM
- TGI ([18]; Ovarian Cancer, OVCAR-3): 2.21 × 10^−6
- GI50 ([19]; Homo sapiens, OVCAR-4): 1220 nM
- CC50 ([19]; Homo sapiens, OVCAR-4, read-out: LC50): 4980 nM
- TGI ([19]; Ovarian Cancer, OVCAR-4): 2.46 × 10^−6
- GI50 ([20]; Homo sapiens): 781 nM
- CC50 ([20]; Homo sapiens, read-out: LC50): 4550 nM
- TGI ([20]; Leukemia): 2.04 × 10^−6
- GI50 ([21]; Homo sapiens, NCI-H522): 1250 nM
- CC50 ([21]; Homo sapiens, NCI-H522, read-out: LC50): 5030 nM
- TGI ([21]; Non-Small Cell Lung Cancer, NCI-H522): 2.51 × 10^−6
- GI50 ([22]; Homo sapiens, HL-60): 249 nM
- CC50 ([22]; Homo sapiens, HL-60, read-out: LC50): 1520 nM
- TGI ([22]; Leukemia, HL-60(TB)): 5.42 × 10^−7
- GI50 ([23]; Homo sapiens, RPMI-8226): 1040 nM
- CC50 ([23]; Homo sapiens, RPMI-8226, read-out: LC50): 4740 nM
- TGI ([23]; Leukemia, RPMI-8226): 2.22 × 10^−6
- TGI ([24]; Breast Cancer, MDA-MB-468): 8.97 × 10^−7
- GI50 ([24]; Homo sapiens, MDA-MB-468): 275 nM
- CC50 ([24]; Homo sapiens, MDA-MB-468, read-out: LC50): 3000 nM
